Experimental data from ChEMBL document CHEMBL4190173 (Medchemcomm, 2016).
Calls of active or inactive are those of the source. The calls are words filed in the database; no cut-off is given here.

Experiments:
[1] = biological target: T1, NAD-dependent protein deacetylase sirtuin-1 (Homo sapiens) (UniProt Q96EB6); assay: Inhibition of human recombinant SIRT1 at 50 uM using AMC-p53 (379 to 382 residues) as substrate incubated for 45 mins followed by NAD+ addition measured after 30 mins by fluorescence assay relative to control
T1 sequence (whole entry): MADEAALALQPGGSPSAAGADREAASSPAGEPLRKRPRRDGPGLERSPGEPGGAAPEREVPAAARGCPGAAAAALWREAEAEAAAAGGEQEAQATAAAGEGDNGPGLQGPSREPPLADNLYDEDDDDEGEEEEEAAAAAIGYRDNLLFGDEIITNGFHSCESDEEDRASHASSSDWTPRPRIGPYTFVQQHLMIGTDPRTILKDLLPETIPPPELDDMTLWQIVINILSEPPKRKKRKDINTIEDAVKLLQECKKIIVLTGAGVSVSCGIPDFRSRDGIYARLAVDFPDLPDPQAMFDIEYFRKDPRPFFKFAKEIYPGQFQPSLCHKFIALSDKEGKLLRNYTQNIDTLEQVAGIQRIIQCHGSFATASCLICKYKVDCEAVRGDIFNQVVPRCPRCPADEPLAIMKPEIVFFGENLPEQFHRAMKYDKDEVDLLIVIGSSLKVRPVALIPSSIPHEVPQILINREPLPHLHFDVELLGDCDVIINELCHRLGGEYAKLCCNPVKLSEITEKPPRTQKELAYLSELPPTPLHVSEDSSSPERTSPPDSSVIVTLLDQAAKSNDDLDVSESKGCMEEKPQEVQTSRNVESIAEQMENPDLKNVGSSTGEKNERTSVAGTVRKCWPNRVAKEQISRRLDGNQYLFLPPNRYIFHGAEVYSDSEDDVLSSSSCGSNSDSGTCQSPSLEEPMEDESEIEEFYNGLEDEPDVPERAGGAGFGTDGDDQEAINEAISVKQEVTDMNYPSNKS

[2] = biological target: T2, NAD-dependent protein deacetylase sirtuin-2 (Homo sapiens) (UniProt Q8IXJ6); assay: Inhibition of human recombinant SIRT2 at 50 uM using AMC-p53 ([…] residues) as substrate incubated for 45 mins followed by NAD+ addition measured after 30 mins by fluorescence assay relative to control
T2 sequence (whole entry): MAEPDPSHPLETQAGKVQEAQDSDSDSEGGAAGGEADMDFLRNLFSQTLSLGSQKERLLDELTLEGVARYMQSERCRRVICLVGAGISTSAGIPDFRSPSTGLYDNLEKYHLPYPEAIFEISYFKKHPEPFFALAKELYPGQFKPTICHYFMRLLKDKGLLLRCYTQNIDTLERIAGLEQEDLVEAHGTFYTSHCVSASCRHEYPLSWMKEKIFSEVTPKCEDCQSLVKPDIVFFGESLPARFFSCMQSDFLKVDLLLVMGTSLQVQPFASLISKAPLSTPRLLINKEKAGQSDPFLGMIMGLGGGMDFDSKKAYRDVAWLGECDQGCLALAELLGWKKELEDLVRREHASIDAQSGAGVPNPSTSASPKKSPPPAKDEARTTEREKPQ

[3] = biological target: T3, NAD-dependent protein deacetylase sirtuin-3, mitochondrial (Homo sapiens) (UniProt Q9NTG7); assay: Inhibition of human recombinant SIRT3 at 50 uM using AMC-p53 ([…] residues) as substrate incubated for 45 mins followed by NAD+ addition measured after 30 mins by fluorescence assay relative to control
T3 sequence (whole entry): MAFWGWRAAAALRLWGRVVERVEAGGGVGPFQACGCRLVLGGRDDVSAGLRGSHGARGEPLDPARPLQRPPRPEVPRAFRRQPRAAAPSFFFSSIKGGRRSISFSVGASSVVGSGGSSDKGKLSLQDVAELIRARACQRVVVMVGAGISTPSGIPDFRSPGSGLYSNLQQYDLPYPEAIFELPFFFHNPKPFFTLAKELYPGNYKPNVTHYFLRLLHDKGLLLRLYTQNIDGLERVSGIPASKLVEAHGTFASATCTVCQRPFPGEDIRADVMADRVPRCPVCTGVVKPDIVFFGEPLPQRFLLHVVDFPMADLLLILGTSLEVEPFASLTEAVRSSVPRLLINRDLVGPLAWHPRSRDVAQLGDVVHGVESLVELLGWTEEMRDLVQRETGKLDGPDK

[4] = biological target: T4, NAD-dependent protein deacetylase sirtuin-1 (Homo sapiens, UniProt Q96EB6); assay: Inhibition of human recombinant SIRT1 using AMC-p53 (379 to 382 residues) as substrate incubated for 45 mins followed by NAD+ addition measured after 30 mins by fluorescence assay
T4 sequence (Q96EB6 whole entry): T1 sequence (whole entry)

[5] = biological target: T5, NAD-dependent protein deacetylase sirtuin-2 (Homo sapiens, UniProt Q8IXJ6); assay: Inhibition of human recombinant SIRT2 using AMC-p53 (317 to 320 residues) as substrate incubated for 45 mins followed by NAD+ addition measured after 30 mins by fluorescence assay
T5 sequence (Q8IXJ6 whole entry): T2 sequence (whole entry)

[6] = biological target: T6, NAD-dependent protein deacetylase sirtuin-3, mitochondrial (Homo sapiens, UniProt Q9NTG7); assay: Inhibition of human recombinant SIRT3 using AMC-p53 (317 to 320 residues) as substrate incubated for 45 mins followed by NAD+ addition measured after 30 mins by fluorescence assay
T6 sequence (Q9NTG7 whole entry): T3 sequence (whole entry)

[7] = biological target: T2, NAD-dependent protein deacetylase sirtuin-2 (Homo sapiens); assay: Competitive inhibition of human recombinant SIRT2 using varying levels of NAD+
[8] = biological target: T2, NAD-dependent protein deacetylase sirtuin-2 (Homo sapiens); assay: Competitive inhibition of human recombinant SIRT2 using varying levels of AMC-p53 (317 to 320 residues) as substrate

inhibition [1] [%] | inhibition [2] [%] | inhibition [3] [%] | IC50 [4] [µM] | IC50 [5] [µM] | IC50 [6] [µM] | inhibition [7] | inhibition [8] | SMILES
29 | 45.9 | 31.5 | – | – | – | – | – | CCCCCCCCn1c(-c2ccc(-c3ccc(O)cc3O)cc2)nc2cc(C(=O)OCC)ccc21
– | – | – | 37 | 13.5 | – | – | – | CCOC(=O)c1ccc(N2CCN(CCn3c(-c4ccc(-c5ccc(N6CCCCC6)cc5)cc4)nc4cc(C(=O)OCC)ccc43)CC2)c(N)c1
– | – | – | 29.8 | 16.1 | 27 | – | – | CCOC(=O)c1ccc(N2CCN(CCn3c(-c4ccc(-c5ccc6c(c5)OCO6)cc4)nc4cc(C(=O)OCC)ccc43)CC2)c(N)c1
31.1 | 26.8 | 25.1 | – | – | – | – | – | CCOC(=O)c1ccc(N2CCN(CCn3c(-c4ccc(-c5ccccc5)cc4)nc4cc(C(=O)OCC)ccc43)CC2)c(N)c1
– | – | – | > 50 | 38.1 | > 50 | – | – | CCCCCCCCn1c(-c2ccc(-c3ccc(N(C)C)cc3)cc2)nc2cc(C(=O)OCC)ccc21
– | – | – | > 50 | 41.4 | > 50 | – | – | CCCCCCCCn1c(-c2ccc(-c3ccc4c(c3)OCO4)cc2)nc2cc(C(=O)OCC)ccc21
15.3 | 30.3 | 19.4 | – | – | – | – | – | CCCCCCCCn1c(-c2ccc(-c3ccc(C)cc3)cc2)nc2cc(C(=O)OCC)ccc21
28.4 | 43 | 30.7 | – | – | – | – | – | CCOC(=O)c1ccc(N2CCN(CCn3c(-c4ccc(-c5ccc(C)cc5)cc4)nc4cc(C(=O)OCC)ccc43)CC2)c(N)c1
28.2 | 43.3 | 38 | – | – | – | – | – | CCOC(=O)c1ccc(N2CCN(CCn3c(-c4ccc(-c5ccc(Cl)cc5)cc4)nc4cc(C(=O)OCC)ccc43)CC2)c(N)c1
23.9 | 30 | 20.4 | – | – | – | – | – | CCCCCCCCn1c(-c2ccc(-c3ccccc3)cc2)nc2cc(C(=O)OCC)ccc21
22 | 14 | 24.4 | – | – | – | – | – | CCCCCCCCn1c(-c2ccc(-c3cccc(-c4ccc(F)cn4)c3)cc2)nc2cc(C(=O)OCC)ccc21
– | – | – | 10.2 | 2.92 | – | Active | Active | CCOC(=O)c1ccc(N2CCN(CCn3c(-c4ccc(-c5ccc(N(C)C)cc5)cc4)nc4cc(C(=O)OCC)ccc43)CC2)c(N)c1
24.6 | 37.2 | 20.6 | – | – | – | – | – | CCOC(=O)c1ccc(N2CCN(CCn3c(-c4ccc(-c5ccc(OC(F)(F)F)cc5)cc4)nc4cc(C(=O)OCC)ccc43)CC2)c(N)c1
– | – | – | > 50 | 36.8 | > 50 | – | – | CCCCCCCCn1c(-c2ccc(-c3ccc(N4CCCCC4)cc3)cc2)nc2cc(C(=O)OCC)ccc21
– | – | – | 20 | 7.87 | – | – | – | CCOC(=O)c1ccc(N2CCN(CCn3c(-c4ccc(-c5ccc(O)cc5O)cc4)nc4cc(C(=O)OCC)ccc43)CC2)c(N)c1
– | – | – | – | – | 82.6 | – | – | CN(C)CCCCC(=O)Nc1ccc(NC(=S)NC(=O)c2ccc(C(C)(C)C)cc2)cc1
– | – | – | > 50 | 46.9 | > 50 | – | – | CCCCCCCCn1c(-c2ccc(-c3ccc(O)c(OC)c3)cc2)nc2cc(C(=O)OCC)ccc21
25 | 35.6 | 16.9 | – | – | – | – | – | CCCCCCCCn1c(-c2ccc(-c3ccc(OC(F)(F)F)cc3)cc2)nc2cc(C(=O)OCC)ccc21
24.3 | 38.3 | 24.9 | – | – | – | – | – | CCCCCCCCn1c(-c2ccc(-c3ccc(Cl)cc3)cc2)nc2cc(C(=O)OCC)ccc21
– | – | – | 35.1 | 8.61 | – | – | – | CCOC(=O)c1ccc(N2CCN(CCn3c(-c4ccc(-c5ccc(O)c(OC)c5)cc4)nc4cc(C(=O)OCC)ccc43)CC2)c(N)c1
20.6 | 20.9 | 18.4 | – | – | – | – | – | CCOC(=O)c1ccc(N2CCN(CCn3c(-c4ccc(-c5cncc(-c6ccc(F)cc6)c5)cc4)nc4cc(C(=O)OCC)ccc43)CC2)c(N)c1
